Earlier results on four molecules are cited in US6447820B1, “Pharmaceutical composition for the prevention and treatment of scar tissue” (priority 2001, dated 2002).

For data set [1] the following is noted: mice.
For data set [2] the following is noted: mice. This is another data set of the same source.
For data set [3] the following is noted: X-ray irradiated recipient mice.
The conditions of data set [4]: mice. This is another data set of the same source.
The conditions of data set [5]: guinea pigs.
The conditions of data set [6]: mice. This is another data set of the same source.

Regarding `CC1(C)O[C@H]2CC(=O)OC[C@]23[C@H]2CC[C@@]4(C)[C@H](c5ccoc5)OC(=O)[C@H]5O[C@]54[C@]2(C)C(=O)C[C@@H]13` [limonin], the “sleeping time induced by alpha-chloralose-urethane” value in data set [1] was “shorten”.
As to `COc1ccc2c(c1O)-c1c(O)c(OC)cc3c1[C@H](C2)[N+](C)(C)CC3` [magnoflorine], the “local GvH reactions” value in data set [2] is given as “suppress”.
For the molecule `CC1(C)OC(=O)C=C[C@]2(C)[C@H]3CC[C@@]4(C)[C@H](c5ccoc5)OC(=O)[C@H]5O[C@]54[C@]3(C)C(=O)C[C@@H]12` [obacunone], the “sleeping time induced by alpha-chloralose-urethane” value in data set [1] is “shorten”.
As for `COc1cc2c(cc1O)C[C@H]1c3cc(O)c(OC)cc3CC[N@@+]1(C)C2` [phellodendrine], in data set [2], the “local GvH reactions” value was “suppress” and the “local semisyngeneic GvH reactions” value is “suppressed”. Also, in data set [3], the “systemic allogeneic GvH reactions” value is reported as “suppressed”. Besides, in data set [4], the “effector phase of SRBC-induced delayed type hypersensitivity” value was “did not suppress” and the “induction phase of SRBC-induced delayed type hypersensitivity” value is “suppressed”. Moreover, in data set [5], the “effector phase of tuberculin-induced delayed type hypersensitivity” value is “did not suppress” and the “induction phase of tuberculin-induced delayed type hypersensitivity” value is reported as “suppressed”. Besides, in data set [6], the “antibody production to SRBC” value was “did not affect”.
